Results published in US9771335B2 (THE JOHNS HOPKINS UNIVERSITY, priority 2015, dated 2017).
Entries after “also recorded” stand apart in the source; their conditions may differ.

How the values were obtained:
hNav1.1 = target: T1, hNav1.1 (Homo sapiens, UniProt P35498); test: Two-electrode voltage-clamp recording from Xenopus oocytes expressing hNav1.1 with β1; type: cell-based; settings: for effect on hNav1.1 opening / gating (in words): G/Gmax vs DMSO control; for hNav1.1 Inactivation (V1/2), steady-state inactivation / hNav1.1 Activation (V1/2): 100 μM drug, Xenopus oocytes, DMSO 1% or less; for hNav1.1 Activation (V1/2): at least one hour incubation, ** = p<0.005 vs DMSO; for effect on hNav1.1 persistent current (in words): end of a 50 ms test pulse; for depolarizing shift in hNav1.1 channel activation voltage: vs DMSO control
T1 construct: host or cells: Xenopus oocytes (cRNA injection)

hNav1.2 = target: T2, hNav1.2 (Homo sapiens, UniProt Q99250); test: Two-electrode voltage-clamp recording from Xenopus oocytes expressing hNav1.2 with β1; type: cell-based; settings: for effect on hNav1.2 opening / tested gating parameters (in words): 100 μM, vs DMSO control; for hNav1.2 Activation (V1/2) / hNav1.2 Inactivation (V1/2), steady-state inactivation: 100 μM drug, Xenopus oocytes, DMSO 1% or less
T2 construct: host or cells: Xenopus oocytes (cRNA injection)

hNav1.3 = target: T3, hNav1.3 (Homo sapiens, UniProt Q9NY46); test: Two-electrode voltage-clamp recording from Xenopus oocytes expressing hNav1.3 with β1; type: cell-based; settings: for effect on hNav1.3 opening / tested gating parameters (in words): 100 μM, vs DMSO control; for hNav1.3 Activation (V1/2) / hNav1.3 Inactivation (V1/2), steady-state inactivation: 100 μM drug, Xenopus oocytes, DMSO 1% or less
T3 construct: host or cells: Xenopus oocytes (cRNA injection)

hNav1.6 = target: T4, hNav1.6 (Homo sapiens, UniProt Q9UQD0); test: Two-electrode voltage-clamp recording from Xenopus oocytes expressing hNav1.6 with β1; type: cell-based; settings: for hNav1.6 Activation (V1/2) / hNav1.6 Inactivation (V1/2), steady-state inactivation: 100 μM drug, Xenopus oocytes, DMSO 1% or less
T4 construct: host or cells: Xenopus oocytes (cRNA injection)

α1/β2/γ2 GABAA receptor = target: T5, α1/β2/γ2 GABAA receptor (Homo sapiens, UniProt P14867+P18507+P47870); test: GABAA receptor activation in oocytes held at −70 mV; type: cell-based; settings: 100 μM; 5 μM muscimol as activator control
T5 construct: expressed in transfected cells; host or cells: oocytes (heterologous expression inferred)
Description: Oocytes were kept at −70 mV throughout the experiment.

[1] = tested on: picrotoxin-induced generalized seizures in male Cr1:CF1 mice; test: Picrotoxin seizure induction; type: in vivo
Description: (§1) Animal husbandry and drug administration. Male Cr1:CF1 mice (10-12 weeks old, Charles River) were housed under a 12 hour light-dark cycle with free access to food and water and all experiments were carried out between 10 am and 4 pm. 1-[phenyl-methyl]-1H-1,2,3-triazole-4-carboxamide-5-methyl (Compound B) (Sigma Aldrich) was suspended in a 40% solution of cyclodextrin (Sigma Aldrich) in sterile saline (0.9%) and 15 minutes prior to each seizure induction paradigm, 75 mg/kg of compound B was administered via intraperitoneal injection (ip) injection. Vehicle treated animals were similarly administrated 40% cyclodextrin and served as the controls for each experiment. The Emory University Institutional Animal Care and Use Committee approved all experimental protocols involving mice.
Seizure induction paradigms and analyses. Picrotoxin seizure induction—15 minutes prior to i.p. injection of picrotoxin (10 mg/kg, Sigma Aldrich), mice were administered vehicle or compound B (n=12 per group). Latencies to the first myoclonic jerk, forelimb clonus, and generalized tonic-clonic seizure were compared between compound B and vehicle-treated mice. The myoclonic jerk is characterized by a sudden jerk of the upper body whereas forelimb clonus involves rapid movement of the forelimbs for at least 5s. Finally, the generalized tonic-clonic seizure involves the loss of postural control with rapid movement of the limbs for at least 5s.
Statistical analysis. A Student's t-test was used to identify statistically significant differences in latencies between vehicle- and compound B-treated groups for each seizure phenotype following administration of flurothyl and picrotoxin. […] All data are presented as the mean±s.e.m.; p values <0.05 were considered significant.

[2] = tested on: flurothyl-induced generalized seizures in male Cr1:CF1 mice; test: Flurothyl seizure induction; type: in vivo; settings: 75 mg/kg ip, vs vehicle, p=0.6
Description: as §1
Flurothyl Seizure induction. Latencies to flurothyl-induced seizures were determined as previously described (Neurobiol Dis 49C, 211-220 (2012)). Briefly, flurothyl (2,2,2-trifluroethylether; Sigma Aldrich) was dispensed at a rate of 20 μl/minute into a Plexiglas chamber and latencies to three behavioral phenotypes were compared between vehicle-treated and compound B-treated (75 mg/kg) mice (n=12 per group): 1) the first myoclonic jerk, 2) a generalized tonic-clonic seizure, and 3) a generalized tonic-clonic seizure with tonic extension. […]

[3] = tested on: 6 Hz (17 mA) induced partial seizures in male Cr1:CF1 mice; test: 6 Hz psychomotor seizure induction; type: in vivo; settings: 75 mg/kg ip, p<0.0001
Description: as §1
6 Hz psychomotor seizure induction. Topical anesthetic (0.5% tetracaine hydrochloride ophthalmic solution) was applied to the cornea 30 minutes before testing. Fifteen minutes prior to seizure induction, mice were administrated vehicle or compound B (n=12 per group). Each mouse was manually restrained and corneal stimulation (0.2 ms pulse, 6 Hz, 3s) was performed at a current intensity of 17 mA (ECT Unit 57800; Ugo Basile, Comerio Italy). […]

Solubility of rufinamide = type: physicochemical
[4] = 75 mg/kg ip 15 minutes prior to picrotoxin 10 mg/kg, vs vehicle

T5 sequence (P14867 28-456): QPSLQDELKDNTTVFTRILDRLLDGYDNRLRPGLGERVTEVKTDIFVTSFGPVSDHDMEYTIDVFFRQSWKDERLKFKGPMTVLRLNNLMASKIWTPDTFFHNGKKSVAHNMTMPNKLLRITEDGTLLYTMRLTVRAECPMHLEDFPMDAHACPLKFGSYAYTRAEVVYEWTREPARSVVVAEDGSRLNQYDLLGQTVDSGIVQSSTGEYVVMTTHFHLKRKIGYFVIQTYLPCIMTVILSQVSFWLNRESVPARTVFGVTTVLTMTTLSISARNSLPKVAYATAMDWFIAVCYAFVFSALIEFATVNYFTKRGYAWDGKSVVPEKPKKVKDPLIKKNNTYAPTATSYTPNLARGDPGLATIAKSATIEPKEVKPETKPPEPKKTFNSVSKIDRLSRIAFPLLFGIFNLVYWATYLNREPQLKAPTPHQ
T5 sequence (P47870 25-512 limits assumed): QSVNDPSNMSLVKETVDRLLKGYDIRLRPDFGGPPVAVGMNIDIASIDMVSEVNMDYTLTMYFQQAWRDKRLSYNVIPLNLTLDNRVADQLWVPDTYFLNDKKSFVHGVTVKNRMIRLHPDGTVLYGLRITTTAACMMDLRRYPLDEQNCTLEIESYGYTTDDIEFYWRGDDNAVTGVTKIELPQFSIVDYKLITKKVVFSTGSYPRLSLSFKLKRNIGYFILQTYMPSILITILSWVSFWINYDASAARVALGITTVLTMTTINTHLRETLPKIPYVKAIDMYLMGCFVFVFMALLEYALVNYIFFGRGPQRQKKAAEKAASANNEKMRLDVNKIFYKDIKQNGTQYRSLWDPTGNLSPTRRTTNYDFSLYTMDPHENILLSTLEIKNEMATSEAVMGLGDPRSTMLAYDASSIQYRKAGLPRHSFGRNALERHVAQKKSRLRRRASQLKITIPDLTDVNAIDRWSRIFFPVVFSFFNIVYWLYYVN
T5 sequence (P18507 40-475): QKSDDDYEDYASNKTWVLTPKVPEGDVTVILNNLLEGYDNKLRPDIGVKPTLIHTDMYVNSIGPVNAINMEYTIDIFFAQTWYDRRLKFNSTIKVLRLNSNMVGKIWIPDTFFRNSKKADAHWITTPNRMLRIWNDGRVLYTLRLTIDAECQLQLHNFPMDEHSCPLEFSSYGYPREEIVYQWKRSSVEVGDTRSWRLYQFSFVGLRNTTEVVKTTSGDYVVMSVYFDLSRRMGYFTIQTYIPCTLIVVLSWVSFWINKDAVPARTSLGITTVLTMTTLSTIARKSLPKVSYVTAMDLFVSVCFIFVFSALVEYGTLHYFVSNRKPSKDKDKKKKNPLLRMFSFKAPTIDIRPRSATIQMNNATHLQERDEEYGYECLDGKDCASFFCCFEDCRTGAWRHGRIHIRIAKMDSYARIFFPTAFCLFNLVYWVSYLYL

Compound	effect on hNav1.1 opening / gating (in words) (hNav1.1; 100 μM)	effect on hNav1.2 opening / tested gating parameters (in words) (hNav1.2)	effect on hNav1.3 opening / tested gating parameters (in words) (hNav1.3)	hNav1.1 Inactivation (V1/2), steady-state inactivation (hNav1.1) [mV]	hNav1.1 Activation (V1/2) (hNav1.1) [mV]	effect on hNav1.1 persistent current (in words) (hNav1.1; 100 μM)	effect on hNav1.6 opening / tested gating parameters (in words) (hNav1.6; 100 μM, vs DMSO control)	further results
1-[(2,6-difluorophenyl)methyl]-1H-1,2,3-triazole-carboxymethyl-5-methyl [Compound L]	only slightly inhibits hNav1.1 opening	not significant	not significant					effect on hNav1.6 steady-state inactivation (in words) (hNav1.6; 100 μM): dramatically affect hNav1.6 steady-state inactivation
NC(=O)c1nnn(Cc2cccc(F)c2)c1N [Compound A, 1-[(3-fluorophenyl)methyl]-1H-1,2,3-Triazole-4-carboxamide-5-amine]	clearly inhibit hNav1.1 opening			−50.5 ± 1.2	−30.8 ± 1.0	neither of these compounds influences		
Cc1c(C(N)=O)nnn1Cc1ccccc1 [Compound B, 1-[phenyl-methyl]-1H-1,2,3-Triazole-4-carboxamide-5-methyl]	more efficaciously when compared to rufinamide; also recorded: clearly inhibit hNav1.1 opening	unaltered	unaltered	−49.4 ± 0.3	−27.4 ± 1.0	do not affect persistent current	unaltered	effect on entry or voltage-dependence of hNav1.1 slow inactivation (in words) (hNav1.1): do not influence; depolarizing shift in hNav1.1 channel activation voltage (hNav1.1; 100 μM): ~+11 mV; Voltage-dependence of SI (V), V1/2 of hNav1.1 slow inactivation (hNav1.1; oocytes expressing hNav1.1, Boltzmann fit): −43.2 ± 1.3 mV; Entry into SI (T), time constant of entry into hNav1.1 slow inactivation (hNav1.1; oocytes expressing hNav1.1, single exponential fit): 5.5 ± 0.4 s; hNav1.2 Activation (V1/2) (hNav1.2): −23.6 ± 1.1 mV; hNav1.2 Inactivation (V1/2), steady-state inactivation (hNav1.2): −53.6 ± 1.2 mV; hNav1.3 Activation (V1/2) (hNav1.3): −25.8 ± 1.4 mV; hNav1.3 Inactivation (V1/2), steady-state inactivation (hNav1.3): −50.0 ± 0.8 mV; hNav1.6 Activation (V1/2) (hNav1.6): −23.8 ± 1.9 mV; hNav1.6 Inactivation (V1/2), steady-state inactivation (hNav1.6): −62.6 ± 0.7 mV; activation of the α1/β2/γ2 GABAA receptor (in words) (α1/β2/γ2 GABAA receptor): do not activate; also recorded: do not evoke inward GABAA-mediated currents; frequency of the behavioral seizures vs vehicle, picrotoxin ([1]; 75 mg/kg ip): no difference; average latency to forelimb clonus (FC), picrotoxin [1, 4]: no statistically significant differences; average latency to the first myoclonic jerk (MJ), picrotoxin [1, 4]: no statistically significant differences; average latency to the MJ, flurothyl [2]: comparable; severity of seizures vs vehicle (modified Racine scale), 6 Hz [3]: dramatically less severe; also recorded: typically less severe
OCc1cn(Cc2cccc(F)c2)nn1 [Compound C, 1-[(3-fluorophenyl)methyl]-1H-1,2,3-Triazole-4-hydroxymethyl]	does not influence hNav1.1 gating; also recorded: no longer affects hNav1.1 opening			−49.2 ± 0.6	−38.4 ± 1.3			
NC(=O)c1nnn(Cc2ccc(F)cc2)c1N [Compound D, 1-[(4-fluorophenyl)methyl]-1H-1,2,3-Triazole-4-carboxamide-5-amine]	not significant			−49.8 ± 1.6	−32.5 ± 2.3			
CCc1c(C(N)=O)nnn1Cc1ccccc1 [Compound F, 1-(phenylmethyl)-1H-1,2,3-triazole-4-carboxamide-5-ethyl]	inhibits hNav1.1 opening	not significant	not significant			does not influence	not significant	effect on hNav1.1 steady-state inactivation (in words) (hNav1.1; 100 μM): does not influence; depolarizing shift in hNav1.1 channel activation voltage (hNav1.1; 100 μM): ~+12 mV
COC(=O)c1nnn(Cc2c(F)cccc2F)c1C [Compound L, 1-[(2,6-difluorophenyl)methyl]-1H-1,2,3-triazole-carboxymethyl-5-methyl]	much smaller compared to compound B							shift of midpoint of hNav1.6 channel availability (steady-state inactivation) (hNav1.6; 100 μM, vs DMSO control): ~−20 mV
NC(=O)c1cn(Cc2c(F)cccc2F)nn1 [Rufinamide, 1-[(2,6-difluorophenyl)methyl]-1H-1,2,3-Triazole-4-carboxamide, reference compound]	dramatic depolarizing shift; also recorded: inhibits hNav1.1 opening	not inhibited	not inhibited	−47.8 ± 1.6	−30.6 ± 0.9	do not affect persistent current	not inhibited; also recorded: not significant	effect on entry or voltage-dependence of hNav1.1 slow inactivation (in words) (hNav1.1): do not influence; hNav1.2 Activation (V1/2) (hNav1.2): −29.5 ± 1.2 mV; hNav1.2 Inactivation (V1/2), steady-state inactivation (hNav1.2): −57.7 ± 0.5 mV; hNav1.3 Activation (V1/2) (hNav1.3): −24.5 ± 2.4 mV; hNav1.3 Inactivation (V1/2), steady-state inactivation (hNav1.3): −52.6 ± 1.6 mV; hNav1.6 Activation (V1/2) (hNav1.6): −28.1 ± 0.8 mV; hNav1.6 Inactivation (V1/2), steady-state inactivation (hNav1.6): −60.0 ± 0.7 mV; activation of the α1/β2/γ2 GABAA receptor (in words) (α1/β2/γ2 GABAA receptor): do not activate; also recorded: do not evoke inward GABAA-mediated currents; solubility (Solubility of rufinamide; DMSO, organic solvent or mixture): ≤ 9000 µg/mL; solubility in water (Solubility of rufinamide; water): slightly soluble
